Experimental data as given in patent US20070054943A1, “Therapeutic agent for keratoconjunctival disorder” (SANTEN PHARMACEUTICAL CO., LTD., priority 2004, published 2007).
“Also recorded” adds a separate entry of the source.

System: corneal disorder models
Assay: Test for therapeutic effect on corneal damage (corneal disorder models, exorbital lacrimal gland removal, fluorescein staining score)
Format: in vivo, male SD rats
Details: for Improvement ratio (%): {(control)-(compound)}/{(control)-(normal eye)}x100; for Mean value of total scores: fluorescein staining score (0-3 each for upper, middle, lower cornea), mean of 8 cases, normal eye 2.9, control 6.1; for effect on corneal damage (in words): rat corneal disorder models, instillation of rosiglitazone 0.02% or pioglitazone hydrochloride 0.01%, 6 times a day for 14 days
Method: Test For Therapeutic Effect On Corneal Damage
Using male SD rats, in accordance with the method of Fujihara et al. (Invest. Ophthalmol. Vis. Sci. 42 (1) 96-100 (2001)), corneal disorder models were produced. After the production of the corneal disorder models, the improvement ratio of a corneal damage was evaluated by a method (Journal of the eye 21 (1) : 87-90 (2004)) modified from the method of Miyata et al. (Japanese Review of Clinical Ophthalmology 48 (2) : 183-188 (1994)).
A male SD rat was systemically anesthetized by an administration of Nembutal. Subsequently the exorbital lacrimal gland was removed and a corneal damage was induced over a period of 2 months.
Then, the present compound (rosiglitazone or pioglitazone hydrochloride) was administered as follows.
A physiological saline solution of rosiglitazone (0.02%) was instilled into both eyes 6 times a day for 14 days (one group consisting of 8 animals).
A physiological saline solution of pioglitazone hydrochloride (0.01%) was instilled into both eyes 6 times a day for 14 days (one group consisting of 8 animals).
In a control group, physiological saline was instilled into both eyes 6 times a day for 14 days (one group consisting of 8 animals).
Fourteen days after the start of instillation, the damaged parts of the cornea were stained with fluorescein. For each of the upper, middle and lower parts of the cornea, the degree of fluorescein staining was evaluated by scoring according to the criteria shown below and the improvement ratio of corneal damage was calculated from the mean value of the total scores for each of the above-mentioned parts.
• 0: No punctate staining • 1: Scattered staining (punctate staining being separated) • 2: Moderate staining (a part of punctate staining being adjacent) • 3: Heavy staining (punctate staining being barely separated) (Results)
By taking the mean value of the total scores for the control group (physiological saline) as a standard (improvement ratio: 0%) and according to the calculation formula shown below, the improvement ratios for rosiglitazone (0.02%) instillation group and pioglitazone (0.01%) instillation group were calculated, which are shown in Table 1. The mean value of the scores is a mean of those of 8 cases, respectively. Improvement ratio(%)={(control)−(the present compound)}/damage degree×100
Damage degree=(control)−(normal eye)

[1] = 0.01% (pioglitazone hydrochloride) in physiological saline instilled into both eyes 6 times a day for 14 days
[2] = 0.02% in physiological saline instilled into both eyes 6 times a day for 14 days

Row | SMILES | Improvement ratio (%) [1] [%] | Mean value of total scores [1] | effect on corneal damage (in words) (listed as pioglitazone) | effect on corneal damage (in words) (listed as pioglitazone hydrochloride) | Improvement ratio (%) [2] [%] | Mean value of total scores [2] | effect on corneal damage (in words)
1 | CCc1ccc(CCOc2ccc(CC3SC(=O)NC3=O)cc2)nc1 (stereo not shown) [Pioglitazone, 5-[[4-[2-(5-ethyl-2-pyridinyl)ethoxy]phenyl]methyl]-2,4-thiazolidinedione] | 62.5 | 4.1 | significantly improve a corneal damage | excellent improving effect |  |  | 
2 | CN(CCOc1ccc(CC2SC(=O)NC2=O)cc1)c1ccccn1 (stereo not shown) [Rosiglitazone, 5-[p-[2-(methyl-2-pyridylamino)ethoxy]benzyl]-2,4-thiazolidinedione] |  |  |  |  | 68.7 | 3.9 | excellent improving effect; also recorded: significantly improve a corneal damage
